Here are results for one molecule from paper PMC8224802 (Pharmaceutics, 2021).

A short description of data set [1]: Microsomal protein binding by rapid equilibrium dialysis (RLM). Type of data set: in vitro ADME, rat. As to the method: A 200 μL spiked samples and 400 μL PBS were placed into the “sample” and “buffer” chambers of the RED device, respectively. After 4-h incubation to equilibrate between the buffer and plasma compartments, the RED plate was sampled from both compartments. The samples were matrix-matched for analysis by addition of either diluted plasma or buffer; (a) blank diluted plasma added to the buffer samples and (b) blank buffer added to the diluted plasma sample, at a ratio of 50:50 v/v. The unbound fractions in microsomes and diluted plasma were determined by dividing the analyte/IS peak area ratios of the (a) sample by those of the (b) sample. The unbound fraction in diluted plasma (fu,d) was converted to the unbound fraction in undiluted plasma (fu) using a Kalvass equation as below (DF: dilution factor). (1) fu=1/DF/[(1/fu,d)−1]+1/DF
On the technique in general: In equilibrium dialysis free small molecules cross a membrane that holds back macromolecules.

Data set [2] is described as follows: Blood-to-plasma concentration ratio (rat whole blood). The data set is classed as in vitro ADME. The conditions noted are these: RPG and QCT 5 μM each. As to the method: A plasma sample was obtained by centrifugation of the blood sample at 2000× g for 5 min.
Data set [3] is described as follows: In vitro microsomal metabolism of RPG (disappearance) in HLM. The data set is classed as in vitro ADME, human. Particulars: for Km: human, human liver microsomes. On the procedure: At 0, 30, and 60 min after starting the metabolic reaction, a 50 μL aliquot of the incubation mixture was sampled and transferred to a clean 1.5-mL microcentrifuge tube containing 150 μL of ice-cold acetonitrile to terminate the metabolic reaction.
The intrinsic metabolic clearance (CLint) was calculated as Vmax/Km. […] Max and Min are the initial and final Y values, respectively, and the power P represents the Hill coefficient. […] Vmax and Km are the same as those defined in Equation (2). The parameter α is indicative of the inhibition type. The mixed model is a general equation that includes competitive, uncompetitive, and noncompetitive inhibition as special cases. When α = 1, the mixed model is identical to a noncompetitive inhibition. When α is very large (α→∞) or very small (α→0), the mixed model becomes identical to competitive inhibition or uncompetitive inhibition, respectively.
Background: Microsomes from liver hold many membrane-bound enzymes, among them those of drug oxidation.

A word on the fraction unbound: it is free concentration divided by total concentration. One may read the Km as the substrate concentration at which the rate is half of its maximum.

Read-outs that look alike come from different tables or passages of the source.

For `CCOc1cc(CC(=O)N[C@@H](CC(C)C)c2ccccc2N2CCCCC2)ccc1C(=O)O` [RPG, Repaglinide], the “Change of fuMIC of RPG by the presence of QCT” value in data set [1] (RLM, RPG and QCT 5 μM each) was “not significantly altered”. In addition, the unbound share (fraction unbound) at 4 h, 5 μM in data set [1] (rat, liver microsomes, read-out: fuMIC (unbound fraction in liver microsomes)) is 0.671 ± 0.009. Moreover, the “Change of RB of RPG by the presence of QCT” value in data set [2] was “not significantly altered”. In addition, the “Vmax, metabolism of RPG” value in data set [3] (HLM 0.3 mg/mL, 1–500 μM RPG, Michaelis–Menten fit) came out at 2850 ± 417 pmol/min/mg protein. Besides, the Michaelis-Menten constant (Km) in data set [3] (Km, metabolism of RPG, HLM 0.3 mg/mL, 1–500 μM RPG, Michaelis–Menten fit) was 27 to 69.4 µM; in data set [3] (Table S3, source Figure 3, read-out: Km used for estimation of R), 27 µM.
